Laboratory results taken from ChEMBL document CHEMBL3272218, “Biologically active derivatives of angiotensin for labeling cellular receptors” (J Med Chem, 1978).
Peptide text beside a SMILES is read from it. * marks the point of attachment. X2 = O=C(O)c1cc(NC(=S)*)ccc1-c1c2ccc(=O)cc-2oc2cc(O)ccc12; X1 = O=Cc1ccc(C(=O)*)cc1

Molecular target: T1, Type-1 angiotensin II receptor (Oryctolagus cuniculus) (UniProt P34976)
T1 sequence (whole entry): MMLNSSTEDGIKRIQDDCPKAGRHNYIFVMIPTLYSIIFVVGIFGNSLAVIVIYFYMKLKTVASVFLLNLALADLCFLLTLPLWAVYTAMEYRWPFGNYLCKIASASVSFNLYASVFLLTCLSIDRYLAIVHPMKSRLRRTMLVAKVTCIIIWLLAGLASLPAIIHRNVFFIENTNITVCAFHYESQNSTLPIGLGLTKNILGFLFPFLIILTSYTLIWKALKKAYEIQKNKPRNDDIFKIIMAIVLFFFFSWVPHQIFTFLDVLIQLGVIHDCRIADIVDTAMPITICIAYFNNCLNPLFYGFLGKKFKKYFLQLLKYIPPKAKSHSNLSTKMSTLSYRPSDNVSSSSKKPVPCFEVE
Test: Relative binding affinity of the compound assessed as ratio of [Asp1,Ile5]angiotensin II ED50 to compound ED50 for angiotensin 2 receptor in rabbit aortic strips

SMILES	relative binding affinity (RBA)
CC[C@H](C)[C@H](NC(=O)[C@H](Cc1ccc(O)cc1)NC(=O)[C@@H](NC(=O)[C@@H](N)CCCN=C(N)N)C(C)C)C(=O)N[C@@H](Cc1c[nH]cn1)C(=O)N1CCC[C@H]1C(=O)N[C@@H](Cc1ccccc1)C(=O)O	2
CC[C@H](C)[C@H](NC(=O)[C@H](Cc1ccc(O)cc1)NC(=O)[C@@H](N)C(C)C)C(=O)N[C@@H](Cc1cnc[nH]1)C(=O)N1CCC[C@H]1C(=O)N[C@@H](Cc1ccccc1)C(=O)O	0.03
CC(C)[C@H](NC(=O)[C@H](CCCNC(=N)N)NC(=O)[C@@H](N)CC(N)=O)C(=O)N[C@@H](Cc1ccc(O)cc1)C(=O)N[C@H](C(=O)N[C@@H](Cc1c[nH]cn1)C(=O)N1CCC[C@H]1C(=O)N[C@@H](Cc1ccccc1)C(=O)O)C(C)C (H-NRVYVHPF-OH)	23
CC(C)[C@H](NC(=O)[C@H](CCCNC(=N)N)NC(=O)[C@H](CC(N)=O)NC(=S)Nc1ccc(-c2c3ccc(=O)cc-3oc3cc(O)ccc23)c(C(=O)O)c1)C(=O)N[C@@H](Cc1ccc(O)cc1)C(=O)N[C@H](C(=O)N[C@@H](Cc1cnc[nH]1)C(=O)N1CCC[C@H]1C(=O)N[C@@H](Cc1ccccc1)C(=O)O)C(C)C (X2-NRVYVHPF-OH)	1
CC(C)[C@H](NC(=O)[C@H](CCCNC(=N)N)NC(=O)[C@H](CC(N)=O)NC(=O)c1ccc(C=O)cc1)C(=O)N[C@@H](Cc1ccc(O)cc1)C(=O)N[C@H](C(=O)N[C@@H](Cc1cnc[nH]1)C(=O)N1CCC[C@H]1C(=O)N[C@@H](Cc1ccccc1)C(=O)O)C(C)C (X1-NRVYVHPF-OH)	8
CCCC[C@H](NC(=O)c1cc(N=[N+]=[N-])ccc1[N+](=O)[O-])C(=O)N[C@@H](CC(=O)O)C(=O)N[C@@H](CCCNC(=N)N)C(=O)N[C@H](C(=O)N[C@@H](Cc1ccc(O)cc1)C(=O)N[C@H](C(=O)N[C@@H](Cc1cnc[nH]1)C(=O)N1CCC[C@H]1C(=O)N[C@@H](Cc1ccccc1)C(=O)O)[C@@H](C)CC)C(C)C	0.5
CC[C@H](C)[C@H](NC(=O)[C@H](Cc1ccc(O)cc1)NC(=O)[C@@H](NC(=O)[C@H](CCCNC(=N)N)NC(=O)[C@H](CC(=O)O)N1C=C(c2ccccc2)C(=O)C1(O)c1ccccc1)C(C)C)C(=O)N[C@@H](Cc1cnc[nH]1)C(=O)N1CCC[C@H]1C(=O)N[C@@H](Cc1ccccc1)C(=O)O (some centres not stated)	3
